Experimental data reported in patent US8044071B2, “Method for reducing side effects of CB2 receptor agonist therapy using a combination of a selective CB2 receptor agonist and a selective CB1 receptor antagonist” (Abbott Laboratories, priority 2007, dated 2011).
Where two headings read alike, the source gives them in different places.

Key:
human CB2 receptors = target: T1, human CB2 receptors (Homo sapiens, UniProt P34972); assay: CB2 radioligand binding assay ([3H]CP-55,940 competition)
T1 construct: expressed in transfected cells
Experimental: To determine the selectivity (Ki) of the compounds of the present application for CB2 receptors relative to CB1 receptors, radioligand binding assays are performed, which are described herein.
For CB2 radioligand binding assays, HEK293 cells stably expressing human CB2 receptors were grown until a confluent monolayer was formed. Briefly, the cells were harvested and homogenized in TE buffer (50 mM Tris-HCl, 1 mM MgCl2, and 1 mM EDTA) using a polytron for 2×10 second bursts in the presence of protease inhibitors, followed by centrifugation at 45,000×g for 20 minutes. The final membrane pellet was re-homogenized in storage buffer (50 mM Tris-HCl, 1 mM MgCl2, and 1 mM EDTA and 10% sucrose) and frozen at −78° C. until used. Saturation binding reactions were initiated by the addition of membrane preparation (protein concentration of 5 μg/well for human CB2) into wells of a deep well plate containing [^3H]CP-55,940 (120 Ci/mmol, a nonselective CB agonist commercially available from Tocris) in assay buffer (50 mM Tris, 2.5 mM EDTA, 5 mM MgCl2, and 0.5 mg/mL fatty acid free BSA, pH 7.4). After 90 min incubation at 30° C., binding reaction was terminated by the addition of 300 μl/well of cold assay buffer followed by rapid vacuum filtration through a UniFilter-96 GF/C filter plates (pre-soaked in 1 mg/mL BSA for 2 hours). The bound activity was counted in a TopCount using Microscint-20. […]

mean arterial pressure = assay: Mean arterial pressure in anesthetized rats; assay type: in vivo; conditions: anesthetized rat
Experimental: Male Sprague-Dawley rats were anesthetized with the long acting barbiturate, Inactin. Catheters were placed in the femoral artery for measurement of MAP and HR. Additional catheters were placed in the femoral vein for compound administration and saline infusion to maintain hydration. Following a 30-minute control period, vehicle (PEG400), compound B (vehicle: PEG400; 2 ml/kg) or CB2 agonist B (vehicle: PEG400; 2 ml/kg) plus CB1 antagonist rimonabant (vehicle: PEG400; 1 ml/kg) was administered intravenously over a 30-minute infusion. When administered simultaneously, compound B and rimonabant were infused individually using separate syringes. The doses tested were 1.0 mg/kg for compound B and 3.2 mg/kg for rimonabant. Data is expressed as mean from 3 rats ±sem. […] These effects indicate that the reduction in blood pressure by CB2 agonist B results from its residual activation of the CB1 receptor.

hind limb grip force = assay: Grip force behavior (hind limb); assay type: in vivo; conditions: rat, 30 μmol/kg i.p.
Experimental: Adverse effects can be assessed by measurements of Grip Force (GF) Behavior. Measurements of hind limb grip force are conducted by recording the maximum compressive force exerted on the hind limb strain gauge setup, in a commercially available grip force measurement system (Columbus Instruments, Columbus, Ohio). During testing, animals are gently restrained by grasping around its rib cage and then allowed to grasp the wire mesh frame (10×12 cm^2) attached to the strain gauge. The experimenter then moves the animal in a rostral-to-caudal direction until the grip is broken. Each animal is sequentially tested twice at approximately 2-3 min interval to obtain a raw mean grip force (CFmax). This raw mean grip force data is in turn converted to a maximum hindlimb compressive force (CFmax) (gram force)/kg body weight for each animal. A group mean±S.E.M. for CFmax/kg body weight is calculated. A group of age-matched naïve animals are added to each experiment and the data obtained from the different dose groups for each compound—or compound combination—being tested are compared to the naïve group (assigned as being 100% normal). […]
Using the grip force behavior assay, the effects of CB2 agonist B were evaluated after the administration of vehicle or the CB1 antagonist rimonabant. […]

T1 sequence (P34972 whole entry): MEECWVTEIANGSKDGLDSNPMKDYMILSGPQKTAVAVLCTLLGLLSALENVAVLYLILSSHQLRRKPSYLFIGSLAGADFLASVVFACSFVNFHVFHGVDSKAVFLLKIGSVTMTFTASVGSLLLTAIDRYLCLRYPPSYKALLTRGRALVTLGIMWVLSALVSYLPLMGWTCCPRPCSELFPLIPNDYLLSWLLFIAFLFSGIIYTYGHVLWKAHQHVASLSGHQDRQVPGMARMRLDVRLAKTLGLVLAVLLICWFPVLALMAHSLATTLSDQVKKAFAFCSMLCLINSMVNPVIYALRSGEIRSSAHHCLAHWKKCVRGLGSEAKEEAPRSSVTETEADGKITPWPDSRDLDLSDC

| Compound | Ki (human CB2 receptors) | effect on mean arterial pressure (MAP), agonist with rimonabant (mean arterial pressure; 1.0 mg/kg i.v. plus rimonabant 3.2 mg/kg i.v., 30-minute infusion) | effect on mean arterial pressure (MAP), agonist alone (mean arterial pressure; 1.0 mg/kg intravenously over 30-minute infusion) | reduction of grip force, agonist after rimonabant (hind limb grip force; rimonabant 30 μmol/kg i.p. 15 min before) | reduction of grip force, agonist after vehicle (hind limb grip force; tested 30 min after second dose) | Ki (human CB2 receptors; HEK293 membranes expressing human CB2, 0.5 nM [3H]CP-55,940, read-out: Ki for CB2 receptors) |
| --- | --- | --- | --- | --- | --- | --- |
| CCCCn1cc(C(C)(C)C)s/c1=N\C(=O)c1cc(Cl)ccc1OC [compound A, (Z)—N-(5-tert-butyl-3-butylthiazol-2(3H)-ylidene)-5-chloro-2-methoxybenzamide] | 1.8 nM | – | – | – | – | – |
| COCCn1c(C)c(C)s/c1=N\C(=O)C1C(C)(C)C1(C)C [compound B, (Z)—N-(3-(2-methoxyethyl)-4,5-dimethylthiazol-2(3H)-ylidene)-2,2,3,3-tetramethylcyclopropanecarboxamide] | – | devoid of an effect on blood pressure relative to vehicle | has an effect to reduce blood pressure | completely blocked | 42% | 0.6 nM |
